{"source": "patent US20090026122A1", "about": "“BIOCOMPATIBLE SOLID-PHASE MICROEXTRACTION COATINGS AND METHODS FOR THEIR PREPARATION” (Janusz, priority 2002, published 2009)", "origin": "cited, not measured here", "system": "plasma proteins", "conditions": "previously published values", "data": [{"smiles": "CN(C)C(=O)C(CCN1CCC(O)(c2ccc(Cl)cc2)CC1)(c1ccccc1)c1ccccc1", "note": "[Loperamide, loperamide]", "values": [{"measurement": "Plasma Protein Binding % Literature Values (range)", "result": "95-97%"}]}]}
